From patent US20130165368A1, “ANTIMICROBIAL COMPOUNDS” (priority 2010, published 2013)
In brackets after ≈: the same amount, converted by molar mass. Like-named read-outs stand apart in the source and are kept apart here.

Assays:
Type in all cases: cell-based
Escherichia coli = assay: MIC agar dilution, micro-organism 1 (10418); details: Escherichia coli 10418
Summary of the method: (§1)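 Twofold dilutions of compound emulsions in water were set in Isosensitest agar with Brazier's CCEY medium, egg yolk and lysed horse blood. Spots of 1 µL from 0.5 McFarland suspensions diluted 1/15 were incubated aerobically at 37 °C and read at 22 and 48 h. MIC (mmol/L) was the lowest concentration giving <10 colonies.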

Staphylococcus aureus = assay: MIC agar dilution, micro-organism 13 (6571); details: Staphylococcus aureus 6571
Summary of the method: as §1

Providencia rettgeri = assay: MIC agar dilution, micro-organism 3 (7475); details: Providencia rettgeri 7475
Summary of the method: as §1

Enterococcus faecalis = assay: MIC agar dilution, micro-organism 17 (775); details: Enterococcus faecalis 775
Summary of the method: as §1

[1] = tested on: Staphylococcus aureus (MRSA); assay: MIC agar dilution, micro-organism 12 (11939); details: Staphylococcus aureus (MRSA) 11939
Summary of the method: as §1

Bacillus subtilis = assay: MIC agar dilution, micro-organism 18 (9372); details: Bacillus subtilis 9372
Summary of the method: as §1

[2] = tested on: Enterococcus casseliflavus (VRE) Clin waste; assay: MIC agar dilution, VRE strain 23
Procedure: (§2) Molar equivalent concentrations were used to allow comparison between compounds of differing molecular mass. Due to weighing difficulties, any compound in solid form was melted in a water bath prior to dilution. To make ten-times strength concentrations, which takes into account agar dilution, 0.0352 mmol of each compound was weighed into plastic universal bottles and 4 mL of sterile distilled water (SDW) was added. To produce a homogenous emulsion the universals were vortexed; once achieved the emulsions were serial diluted by adding 2 mL to 2 mL of SDW.
(§3) For every 100 mL of Isosensitest agar (IST) (CM0471; Oxoid, Basingstoke, England), 3.1 g of the IST powder was added to 100 mL SDW (as per manufacturer's instructions) and sterilised for 15 minutes at 121° C. Once sterilised, the molten agar was cooled to 50° C. in a water-bath. Subsequently 4.8 g of CCEY powder (BC2160; Bioconnections, Wetherby, England), also known as Brazier's medium, was added to 100 mL SDW for every 100 mL of agar needed. This was then sterilised for 15 minutes at 121° C. Once sterilised the molten agar was cooled to 50° C. in a water-bath and 4 mL of egg-yolk emulsion (S2073; TCS Biosciences Ltd, Buckingham, United Kingdom) and 1 mL of lysed defibrinated horse blood (HB035; TCS Biosciences Ltd, Buckingham, United Kingdom) were also added for every 100 mL needed. Horse blood lysis is achieved by dilution to half concentration with SDW; when fully lysed the mixture will turn dark red in colour.
(§4) 18 mL agar was added to each universal and then poured into sterile Petri dishes. This step creates a 1/10 dilution resulting in agar plates of the required strength. Control plates for each set of strains were created by adding 18 mL of agar to 2 mL of SDW.
(§5) Suspensions of each bacterial species were prepared with a density equal to that of a 0.5 McFarland standard using a densitometer. All suspensions were made using sterile distilled water and fresh 18-20 hour cultures. As a 0.5 McFarland standard contains 1.5×10^8 CFU/mL and the multipoint inoculators applies 1 μL spots of liquid, each bacterial suspension was diluted 1/15 (20 μL suspension to 280 μL sterile distilled water).
(§6) Bacterial suspensions were prepared from fresh 18-24 hour cultures as previously described. 1 μL of each strain was inoculated onto all 100 agar plates containing a different chemical concentration and the 2 control plates. This was done using a multipoint inoculator which inoculates 20 strains per plate. All plates were incubated for 22 hours at 37° C. in aerobic conditions.
(§7) Each plate was examined for bacterial growth after 22 and 48 hours, with each being incubated in between examinations. A positive result was recorded as growth of ≧10 colonies. A negative result was recorded as growth of <10 colonies as this is equivalent to 99.9% inhibition. The lowest concentration of chemical that inhibited growth was recorded as the MIC. The results are recorded in Table IV below, where the numbers are quoted in mmol/L.
(§8) Given the positive performance of the ethoxylates of lauryl alcohol in reducing the MIC for a number of the micro-organisms tested, further MIC testing of Laureth-1 [C12E1] through to Laureth-8 [C12E8] was conducted on each of the following: • 10 strains of vancomycin-resistant enterococci (VRE)—listed in Table V below; and • 20 strains of methicillin-resistant Staphylococcus aureus (MRSA)—listed in Table VI.
(§9) The alkanol, alkanol derivatives, agar plates, and inocula were all prepared in the same way as described above.
(§10) The plates were examined in the same manner as described above and the results are recorded in Table VII below, where the numbers are quoted in mmol/L.

MRSA FIN 54518 (E7) = assay: MIC agar dilution, MRSA strain 31; details: Staphylococcus aureus
Procedure: as §2, §3, §4, §5, §6, §7, §8, §9, §10

MRSA NCTC 11939 = assay: MIC agar dilution, MRSA strain 50; details: Staphylococcus aureus, MRSA strain 50 NCTC 11939
Procedure: as §2, §3, §4, §5, §6, §7, §8, §9, §10

MRSA FIN 54511 (E6) = assay: MIC agar dilution, MRSA strain 32; details: Staphylococcus aureus
Procedure: as §2, §3, §4, §5, §6, §7, §8, §9, §10

MRSA EMRSA 16 07924/95 = assay: MIC agar dilution, MRSA strain 49; details: Staphylococcus aureus
Procedure: as §2, §3, §4, §5, §6, §7, §8, §9, §10

[3] = tested on: Enterococcus faecium (VRE) MB 3137; assay: MIC agar dilution, VRE strain 26
Procedure: as §2, §3, §4, §5, §6, §7, §8, §9, §10

[4] = tested on: Enterococcus faecium (VRE) MB 305; assay: MIC agar dilution, VRE strain 25
Procedure: as §2, §3, §4, §5, §6, §7, §8, §9, §10

[5] = Staphylococcus aureus, 22 h, 22 hrs, read-out: MIC
[6] = Staphylococcus aureus, 48 h, 48 hrs, read-out: MIC
[7] = Staphylococcus aureus, MRSA, 22 h, 22 hrs, read-out: MIC
[8] = Staphylococcus aureus, MRSA, 48 h, 48 hrs, read-out: MIC

SMILES | MIC (Escherichia coli; 22 hrs, read-out: MIC) | MIC (Escherichia coli; 48 hrs, read-out: MIC) | MIC (Staphylococcus aureus; [5]) | MIC (Staphylococcus aureus; [6]) | MIC (Providencia rettgeri; 22 hrs, read-out: MIC) | MIC (Providencia rettgeri; 48 hrs, read-out: MIC) | MIC (Enterococcus faecalis; 22 hrs, read-out: MIC) | MIC (Enterococcus faecalis; 48 hrs, read-out: MIC) | MIC [1, 7] | MIC [1, 8] | MIC (Bacillus subtilis; 22 hrs, read-out: MIC) | MIC (Bacillus subtilis; 48 hrs, read-out: MIC) | MIC ([2]; 22 hrs) | MIC ([2]; 48 hrs) | MIC (MRSA FIN 54518 (E7); 22 hrs) | MIC (MRSA FIN 54518 (E7); 48 hrs) | MIC (MRSA NCTC 11939; 22 hrs) | MIC (MRSA NCTC 11939; 48 hrs) | MIC (MRSA FIN 54511 (E6); 22 hrs) | MIC (MRSA FIN 54511 (E6); 48 hrs) | further results
CCCCCCCCCCCCCOCCOCCOCCOCCOCCOCCO [C13E6, polyoxyethylene (6) tridecyl alcohol] | – | – | – | – | – | – | – | – | – | – | – | – | – | – | – | – | – | – | – | – | MIC (Escherichia coli; 22 hrs): >880 µM; MIC (Escherichia coli; 48 hrs): >880 µM; MIC (Staphylococcus aureus; 22 hrs): 110 µM (≈ 51.1 µg/mL); MIC (Staphylococcus aureus; 48 hrs): 110 µM (≈ 51.1 µg/mL); MIC (Providencia rettgeri; 22 hrs): >880 µM; MIC (Providencia rettgeri; 48 hrs): >880 µM; MIC (Enterococcus faecalis; 22 hrs): 110 µM (≈ 51.1 µg/mL); MIC (Enterococcus faecalis; 48 hrs): 110 µM (≈ 51.1 µg/mL); MIC ([1]; 22 hrs): 110 µM (≈ 51.1 µg/mL); MIC ([1]; 48 hrs): 110 µM (≈ 51.1 µg/mL); MIC (Bacillus subtilis; 22 hrs): 110 µM (≈ 51.1 µg/mL); MIC (Bacillus subtilis; 48 hrs): 110 µM (≈ 51.1 µg/mL)
CCCCCCCCCCCCCCCCO [C0, 1-Hexadecanol, reference compound] | > 880 µM | > 880 µM | > 880 µM | > 880 µM | 110 µM (≈ 26.7 µg/mL) | 110 µM (≈ 26.7 µg/mL) | > 880 µM | > 880 µM | > 880 µM | > 880 µM | > 880 µM | > 880 µM | – | – | – | – | – | – | – | – | –
CCCCCCCCCCCCOCCOCCOCCO [L3, Triethylene Glycol Monododecyl Ether] | > 880 µM | > 880 µM | ≤ 50 µM | ≤ 50 µM | > 880 µM | > 880 µM | 110 µM (≈ 35 µg/mL) | 110 µM (≈ 35 µg/mL) | 110 µM (≈ 35 µg/mL) | 110 µM (≈ 35 µg/mL) | 110 µM (≈ 35 µg/mL) | 110 µM (≈ 35 µg/mL) | 220 µM (≈ 70.1 µg/mL) | 220 µM (≈ 70.1 µg/mL) | 220 µM (≈ 70.1 µg/mL) | 440 µM (≈ 140 µg/mL) | 55 µM (≈ 17.5 µg/mL) | 55 µM (≈ 17.5 µg/mL) | 220 µM (≈ 70.1 µg/mL) | 220 µM (≈ 70.1 µg/mL) | MIC (MRSA EMRSA 16 07924/95; 22 hrs): 55 µM (≈ 17.5 µg/mL); MIC (MRSA EMRSA 16 07924/95; 48 hrs): 55 µM (≈ 17.5 µg/mL); MIC ([3]; 22 hrs): 880 µM (≈ 280 µg/mL); MIC ([3]; 48 hrs): > 880 µM; MIC ([4]; 22 hrs): 440 µM (≈ 140 µg/mL); MIC ([4]; 48 hrs): 440 µM (≈ 140 µg/mL)
CCCCCCCCCCCCOCCOCCO [L2, Diethylene Glycol Monododecyl Ether] | > 880 µM | > 880 µM | 110 µM (≈ 30.2 µg/mL) | 110 µM (≈ 30.2 µg/mL) | > 880 µM | > 880 µM | 220 µM (≈ 60.4 µg/mL) | 220 µM (≈ 60.4 µg/mL) | 110 µM (≈ 30.2 µg/mL) | 110 µM (≈ 30.2 µg/mL) | 110 µM (≈ 30.2 µg/mL) | 220 µM (≈ 60.4 µg/mL) | 220 µM (≈ 60.4 µg/mL) | 220 µM (≈ 60.4 µg/mL) | 220 µM (≈ 60.4 µg/mL) | 220 µM (≈ 60.4 µg/mL) | 55 µM (≈ 15.1 µg/mL) | 110 µM (≈ 30.2 µg/mL) | 110 µM (≈ 30.2 µg/mL) | 110 µM (≈ 30.2 µg/mL) | MIC (MRSA EMRSA 16 07924/95; 22 hrs): 110 µM (≈ 30.2 µg/mL); MIC (MRSA EMRSA 16 07924/95; 48 hrs): 110 µM (≈ 30.2 µg/mL); MIC ([3]; 22 hrs): > 880 µM; MIC ([3]; 48 hrs): > 880 µM; MIC ([4]; 22 hrs): 880 µM (≈ 242 µg/mL); MIC ([4]; 48 hrs): 880 µM (≈ 242 µg/mL)
CCCCCCCCCCCCOCCOCCOCCOCCO [L4, Tetraethylene Glycol Monododecyl Ether] | > 880 µM | > 880 µM | 110 µM (≈ 39.9 µg/mL) | 110 µM (≈ 39.9 µg/mL) | > 880 µM | > 880 µM | 110 µM (≈ 39.9 µg/mL) | 110 µM (≈ 39.9 µg/mL) | 110 µM (≈ 39.9 µg/mL) | 110 µM (≈ 39.9 µg/mL) | 110 µM (≈ 39.9 µg/mL) | 110 µM (≈ 39.9 µg/mL) | 110 µM (≈ 39.9 µg/mL) | 110 µM (≈ 39.9 µg/mL) | 220 µM (≈ 79.8 µg/mL) | 440 µM (≈ 160 µg/mL) | 55 µM (≈ 19.9 µg/mL) | 55 µM (≈ 19.9 µg/mL) | 110 µM (≈ 39.9 µg/mL) | 110 µM (≈ 39.9 µg/mL) | MIC (MRSA EMRSA 16 07924/95; 22 hrs): 55 µM (≈ 19.9 µg/mL); MIC (MRSA EMRSA 16 07924/95; 48 hrs): 55 µM (≈ 19.9 µg/mL); MIC ([3]; 22 hrs): 880 µM (≈ 319 µg/mL); MIC ([3]; 48 hrs): > 880 µM; MIC ([4]; 22 hrs): 110 µM (≈ 39.9 µg/mL); MIC ([4]; 48 hrs): 110 µM (≈ 39.9 µg/mL)
CCCCCCCCCCCCOCCOCCOCCOCCOCCO [L5, Pentaethylene Glycol Monododecyl Ether] | > 880 µM | > 880 µM | 110 µM (≈ 44.7 µg/mL) | 110 µM (≈ 44.7 µg/mL) | > 880 µM | > 880 µM | 110 µM (≈ 44.7 µg/mL) | 110 µM (≈ 44.7 µg/mL) | 110 µM (≈ 44.7 µg/mL) | 220 µM (≈ 89.5 µg/mL) | 110 µM (≈ 44.7 µg/mL) | 110 µM (≈ 44.7 µg/mL) | 110 µM (≈ 44.7 µg/mL) | 110 µM (≈ 44.7 µg/mL) | 440 µM (≈ 179 µg/mL) | 440 µM (≈ 179 µg/mL) | 110 µM (≈ 44.7 µg/mL) | 110 µM (≈ 44.7 µg/mL) | 110 µM (≈ 44.7 µg/mL) | 220 µM (≈ 89.5 µg/mL) | MIC (MRSA EMRSA 16 07924/95; 22 hrs): 110 µM (≈ 44.7 µg/mL); MIC (MRSA EMRSA 16 07924/95; 48 hrs): 110 µM (≈ 44.7 µg/mL); MIC ([3]; 22 hrs): 440 µM (≈ 179 µg/mL); MIC ([3]; 48 hrs): > 880 µM; MIC ([4]; 22 hrs): 110 µM (≈ 44.7 µg/mL); MIC ([4]; 48 hrs): 110 µM (≈ 44.7 µg/mL)
